One may read the Ki as a measure of affinity in units of concentration, obtained from inhibition or displacement. Read a high Ki as a looser hold on the target.

From US20100324017A1, “ACYLGUANIDINE DERIVATIVE” (priority 2007, published 2010) come the findings set out here.

One experiment deals with T1, human 5-HT5A receptor (Homo sapiens, UniProt P47898).
T1 construct: expressed in transfected cells; membrane preparation
The experiment can be described thus: Test of human 5-HT5A receptor binding inhibition ([3H]5-CT, HEK293 cell membrane). The note with it: [3H]5-CT binding, membrane of HEK293 cell expressing human 5-HT5A receptor. The method, then: An ORF of a human 5-HT5A receptor (Genbank AF498985) was cloned from a human hippocampal cDNA library, and then inserted into a pCR2.1 vector (Invitrogen), and Escherichia coli having the plasmid was mass cultured. Next, the human 5-HT5A receptor full-length cDNA sequence was analyzed, recombined into a pCDNA3.1 vector (Invitrogen) as an expression vector, and mass cultured. A human embryonic kidney-induced cell HEK293 cell (ATCC) was seeded, and the resulting expression plasmid (1 μg) above was added thereto together with LIPOFECTAMINE 2000 (Invitrogen; 2 μl), a gene was introduced into the HEK293 cell, and then Geneticin (G418 sulfate 500 μg/ml; Kanto Chemical Co., Inc.) was used as a drug-resistant marker to screen the expressing cell. Thus prepared gene-expressing recombinant cell was cultured in a D-MEM, 10% FCS, 1% Pc./Sm., 500 μg/ml G418 culture medium for 3 days. This experimental operation was conducted in accordance with a gene operation experiment manual of a known method (Sambrook, J. et al, Molecular Cloning-A Laboratory Manual“, Cold Spring Harabor Laboratory, NY, 1989), etc., an instruction appended in a reagent or the like.
(1) Preparation of a Membrane from an HEK293 Cell Forcibly Expressing a Human 5-HT5A Receptor
An HEK293 cell forcibly expressing a human 5-HT5A receptor was cultured in an F500 plate, and scraped for collection using a scraper. After centrifugation, the precipitates were collected and an incubation buffer (50 mM Tris (HCl) PH 7.4, 10 mM Mg504, 0.5 mM EDTA) was added thereto. After homogenization, it was further centrifuged, an incubation buffer was added to the precipitate, and the mixture was well suspended. These operations were repeatedly conducted, the protein concentration was then measured, and the preparation of a membrane was completed.
(2) Experiment on Human 5-HT5A Receptor Binding Inhibition
The compound to be tested (0.3 to 300 nM) and a 100 μM 5-CT solution in DMSO were added to a 96-well plate at 2 μl/well. The number of the wells to be measured under the same condition in one experiment was set at 2, and an average value thereof was used. It was suspended in an incubation buffer, and a HEK293 cell membrane forcibly expressing a human 5-HT5A receptor that had been prepared at 200 μg/ml was added thereto at 100 μl/well. The mixture was incubated at room temperature for 15 minutes, and a [^3H]5-CT solution (2 nM [^3H]5-CT, an incubation buffer) was then added thereto at 100 μl/well.
Separate from this, 100 μl of the solution was dispersed to a liquid scintillation vial, 2 ml of Aquasol II (registered trademark) was added thereto, followed by stirring, and the radioactivity was then measured with a liquid scintillation counter. The solution was incubated at 37° C. for 60 minutes. The reaction liquid was sucked to a 96-well GF/C filter plate that had been preliminarily treated with 0.2% polyethyleneimine, and washed six times with an ice-cooled 50 mM Tris (pH 7.5) buffer. The GF/C filter plate was dried.
MicroscintTMPS (registered trademark) was added thereto at 40 μl/well. The radioactivity remaining on the GF/C filter plate was measured in a top counter.
For the inhibitory activity for the binding of the [^3H]5-CT by the compound to be tested in each experiment, IC50 value was calculated by taking the radioactivity when only DMSO was added as 0% inhibition, and the radioactivity when 1 μM 5-CT was added as 100% inhibition. Apart from this, a Ki value was calculated from the Kd value of the [^3H]5-CT that had been determined by Scatchard analysis.
Ki=IC50 (1+Concentration of the ligands added/Kd (4.95 nM))

The test system of experiment [1] is MK-801-induced overactivity. The experiment in a line: MK-801-induced overactivity in mice, kinetic momentum by infrared sensor. The format is in vivo. The note with it: mouse, oral, dose 0.01 mg/kg; MK-801 0.3 mg/kg i.p.; total 60 minutes, P<0.05. The method, then:
Evaluation of Various Drugs Relative to a Drug for Increasing the Kinetic Momentum of Mice (Methane Phetamine, MK-801) (Method for Measuring a Kinetic Momentum by Discharge of an Infrared Ray)
The effect of improving the positive symptoms and the negative symptoms of schizophrenia by the compound (I) was evaluated by measuring the kinetic momentum that had been […] with administration of the compound in a model causing the symptoms by methane phetamine (which is hereinafter simply referred to as MAP) and MK-801.
Species: Male ICR mouse/number of animals (number of animals per group): 8 to 12 animals per group
The animal was left in a laboratory for 1 hour or longer to be acclimated to the environment, and the animal was taken from the feeding cage, orally administered with a compound to be tested, and then returned to the feeding cage. After 30 minutes, it was put into a cage for measurement, and the kinetic momentum of just the compound to be tested was measured. Further, after 30 minutes, the animal was taken out, and intraperitoneally administered with a drug for increasing kinetic momentum (MAP; 1 mg/kg or MK-801; 0.3 mg/kg, all dissolved in physiological saline), and its kinetic momentum was measured for a certain time (60 minutes) using a device for measuring the kinetic momentum by means of an infrared ray sensor (CompACT AMS, Muromachi Kikai Co., Ltd.). Also, the test was carried out under non-fasting.
The 60 minutes of measurements was classified into three groups: a first half 30 minutes, a second half 30 minutes, and a total 60 minutes. For a normal mouse (a mouse administered with physiological saline) and a mouse administered with the drug for increasing kinetic momentum, a Student's T test was used for evaluation in each interval. For the group administered with the compound to be tested, a solvent (vehicle) group and a Dunnett's T test were carried out and evaluated. For the evaluation, in case where there was a significant (P<0.05) difference for the total 60 minutes, it was considered to be effective.

Counter-ions that a name gives are not always drawn.

T1 sequence (P47898 whole entry): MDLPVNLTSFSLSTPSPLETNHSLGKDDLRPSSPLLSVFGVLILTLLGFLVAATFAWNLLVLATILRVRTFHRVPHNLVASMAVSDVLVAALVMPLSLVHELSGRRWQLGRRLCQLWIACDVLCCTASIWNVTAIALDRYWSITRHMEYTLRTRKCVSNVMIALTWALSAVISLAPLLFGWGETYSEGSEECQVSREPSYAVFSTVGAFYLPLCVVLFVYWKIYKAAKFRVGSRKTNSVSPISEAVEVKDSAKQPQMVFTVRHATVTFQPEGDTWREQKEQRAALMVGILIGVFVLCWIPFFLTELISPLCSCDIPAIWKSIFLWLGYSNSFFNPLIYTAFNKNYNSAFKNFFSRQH

`Cc1ccsc1Cn1c2ccccc2c2ccc(C(=O)N=C(N)N)cc21` [Example 177] came in with a Ki on human 5-HT5A receptor of at most 50 nM.
`NC(N)=NC(=O)c1ccc2c3ccccc3n([C@H]3CC[C@@H](F)CC3)c2c1` [Example 143]: on human 5-HT5A receptor, the inhibition constant (Ki) was at most 50 nM.
As to `NC(N)=NC(=O)c1cc(F)c2c3c(F)cccc3n(C3CCOCC3)c2c1` [Example 146], the Ki at human 5-HT5A receptor is at most 50 nM. Further, the “inhibition of MK-801-induced overactivity” value in experiment [1] was “significantly inhibited”.
At human 5-HT5A receptor, `COc1cccc(OC)c1CNC(N)=NC(=O)c1ccc2c3ccccc3n(C3CCOCC3)c2c1` [Example 212] came in with a Ki of at most 50 nM.
Turning to `CC(C)n1c2ccccc2c2ccc(C(=O)N=C(N)N)cc21` [Example 1, N-(diaminomethylene)-9-isopropyl-9H-carbazole-2-carboxamide], the Ki on human 5-HT5A receptor stood at 0.69 nM.
Consider `NC(N)=NC(=O)c1ccc2c(c1)[nH]c1ccccc12` [Example 2, N-(diaminomethylene)-9H-carbazole-2-carboxamide], for which the Ki at human 5-HT5A receptor stood at 2.8 nM.
Take `N/C(=N\C(=O)c1ccc2c3ccccc3n(C3CCOCC3)c2c1)NC[C@H]1CCCO1` [Example 188]: the Ki on human 5-HT5A receptor is at most 50 nM.
For `COc1ccc(CN/C(N)=N/C(=O)c2ccc3c4ccccc4n(C4CCOCC4)c3c2)cc1` [Example 193], on human 5-HT5A receptor, the Ki was at most 50 nM.
For the compound `N#CCN1CCC(n2c3ccccc3c3ccc(C(=O)N=C(N)N)cc32)CC1` [Example 191], the Ki on human 5-HT5A receptor was at most 50 nM.
`CO[C@H]1CC[C@@H](n2c3ccccc3c3ccc(C(=O)N=C(N)N)cc32)CC1` [Example 148]: the Ki on human 5-HT5A receptor is at most 50 nM.
`N/C(=N\C(=O)c1ccc2c3ccccc3n(C3CCOCC3)c2c1)NCc1cccs1` [Example 180] displayed a Ki at human 5-HT5A receptor of at most 50 nM.
`N/C(=N\C(=O)c1ccc2c3ccccc3n(C3CCOCC3)c2c1)NCCc1ccccc1` [Example 196]: at human 5-HT5A receptor, the Ki is at most 50 nM.
On the same count and under the same terms, under `CC(C)C(=O)n1c2ccccc2c2ccc(C(=O)N=C(N)N)cc21` [Example 27] stands 0.66 nM; under `CC(C)N/C(N)=N\C(=O)c1ccc2c3ccccc3n(C3CCOCC3)c2c1` [Example 149], at most 50 nM.
Compound `N/C(=N\C(=O)c1ccc2c3ccccc3n(C3CCOCC3)c2c1)NC1CC1` [Example 164] displayed a Ki on human 5-HT5A receptor of at most 50 nM.
With `Cc1cccc2c1c1c(F)cc(C(=O)N=C(N)N)cc1n2C1CCOCC1` [Example 145], the Ki at human 5-HT5A receptor was at most 50 nM.
Take `Cc1cc(Cn2c3ccccc3c3ccc(C(=O)N=C(N)N)cc32)no1` [Example 141]: the Ki on human 5-HT5A receptor is at most 50 nM.
Take `N/C(=N\C(=O)c1ccc2c3ccccc3n(C3CCOCC3)c2c1)Nc1ccccc1` [Example 181]: the Ki on human 5-HT5A receptor is at most 50 nM.
`N/C(=N\C(=O)c1ccc2c3ccccc3n(C3CCOCC3)c2c1)NCC1CCOCC1` [Example 206]: the Ki on human 5-HT5A receptor was at most 50 nM.
Consider `N/C(=N/C(=O)c1ccc2c3ccccc3n(C3CCOCC3)c2c1)NCCO` [Example 126], for which the Ki on human 5-HT5A receptor was at most 50 nM.
For the compound `N/C(=N\C(=O)c1ccc2c3ccccc3n(C3CCOCC3)c2c1)NC1CCOCC1` [Example 182], the Ki on human 5-HT5A receptor is at most 50 nM.
On the same count and under the same terms, under `N/C(=N\C(=O)c1ccc2c3ccccc3n(C3CCOCC3)c2c1)NCC1CCCC1` [Example 205] stands at most 50 nM; under `NC(N)=NC(=O)c1ccc2c3c(Cl)cccc3n(C3CCOCC3)c2c1` [Example 115], at most 50 nM; under `N/C(=N\C(=O)c1ccc2c3ccccc3n(C3CCOCC3)c2c1)NCC1CCCCC1` [Example 204], at most 50 nM.
Take `NC(N)=NC(=O)c1ccc2c3c(F)ccc(F)c3n(C3CCOCC3)c2c1` [Example 140]: the Ki at human 5-HT5A receptor is at most 50 nM.
With `N/C(=N\C(=O)c1ccc2c3ccccc3n(C3CCOCC3)c2c1)NCC1COCCO1` (stereo not shown) [Example 186], the Ki on human 5-HT5A receptor is at most 50 nM.
In the case of `NC(N)=NC(=O)c1ccc2c3ccccc3n(C3CCOCC3)c2c1` [Example 144], the Ki on human 5-HT5A receptor was at most 50 nM.
The same measure, in the same setting: the same measure for `NC(N)=NC(=O)c1ccc2c3ccc(F)cc3n(C3CCOCC3)c2c1` [Example 114]: at most 50 nM.
Compound `NC(N)=NC(=O)c1ccc2c3ccccc3n(C(CF)CF)c2c1` [Example 160] gave a Ki on human 5-HT5A receptor of at most 50 nM.
For the compound `CC(C)n1c2cc(C(=O)N=C(N)N)ccc2c2c(O)cccc21` [Example 152], the Ki on human 5-HT5A receptor was at most 50 nM.
As to `CN/C(N)=N/C(=O)c1ccc2c3ccccc3n(C3CCOCC3)c2c1` [Example 120], on human 5-HT5A receptor, affinity was put at a Ki of 2.2 nM.
For the compound `N/C(=N\C(=O)c1ccc2c3ccccc3n(C3CCOCC3)c2c1)NCc1ccco1` [Example 179], the Ki on human 5-HT5A receptor is at most 50 nM.
`CSc1cccc2c1c1ccc(C(=O)N=C(N)N)cc1n2C1CCOCC1` [Example 147]: on human 5-HT5A receptor, the Ki is at most 50 nM.
With `NC(N)=NC(=O)c1ccc2c3ccccc3n(Cc3ccc(F)s3)c2c1` [Example 116], the Ki on human 5-HT5A receptor is at most 50 nM.
`COCCN/C(N)=N/C(=O)c1ccc2c3ccccc3n(Cc3cccs3)c2c1` [Example 210]: the Ki on human 5-HT5A receptor is at most 50 nM.
Still for that read-out and setting: under `N/C(=N\C(=O)c1ccc2c3ccccc3n(C3CCOCC3)c2c1)NC[C@@H]1CCCO1` [Example 187] stands at most 50 nM.
The same measure, in the same setting: under `NC(N)=NC(=O)c1ccc2c3ccccc3n(C3CCN(c4ccccc4)CC3)c2c1` [Example 198] stands at most 50 nM.
Consider `N/C(=N\C(=O)c1ccc2c3ccccc3n(C3CCOCC3)c2c1)NCc1ccccc1` [Example 159], for which the Ki on human 5-HT5A receptor was found to be 1.6 nM.
For `NC(N)=NC(=O)C1CCc2c(n(-c3ccccc3)c3ccccc23)C1` (stereo not shown) [Example 220], the Ki on human 5-HT5A receptor is at most 50 nM.
On the same count and under the same terms, under `CC(C)S(=O)(=O)n1c2ccccc2c2ccc(C(=O)N=C(N)N)cc21` [Example 28] stands 4.5 nM; under `NC(N)=NC(=O)c1cc(F)c2c3ccccc3n(C3CCOCC3)c2c1` [Example 11, N-(diaminomethylene)-4-fluoro-9-(tetrahydro-2H-pyran-4-yl)-9H-carbazole-2-carboxamide hydrochloride], at most 50 nM; under `NC(N)=NC(=O)c1ccc2c3ccccc3n([C@@H]3CCNC3)c2c1` [Example 175], at most 50 nM.
Compound `COCCCN/C(N)=N/C(=O)c1ccc2c3ccccc3n(C3CCOCC3)c2c1` [Example 162] gave a Ki at human 5-HT5A receptor of at most 50 nM.
`NC(N)=NC(=O)c1ccc2c3ccccc3n(-c3ccccn3)c2c1` [Example 102] returned a Ki at human 5-HT5A receptor of 5.3 nM.
With `COc1ccccc1CN/C(N)=N/C(=O)c1ccc2c3ccccc3n(C3CCOCC3)c2c1` [Example 195], the Ki on human 5-HT5A receptor is at most 50 nM.
